Data published in patent US20170304228A1, “NEW INDICATION OF CINACALCET HCL PHARMACEUTICAL COMPOSITION FOR TREATING CANCER” (LAUNX BIOMEDICAL CO., LTD., priority 2014, published 2017).
Where “and” joins values, the source holds several entries; their conditions need not be identical. Equal entries are not always repeated. Structures can show the parent of a compound that is named as a salt. Where two headings read alike, the source gives them in different places.

Columns and labels:
H1650 = assay: Cell viability analysis (WST-1), H1650; type: cell-based; settings: Homo sapiens, read-out: survival rate (viability) of cells
Procedure: (§1) The cell numbers were counted and reseed as 2×10^6 in culture plate/flask. Then, the culture medium were added to a volume of 10 ml, and the cells were cultured for 2-3 days. Then, the cells were suspended for loading into 96-well plates. The number of cells was 3000 and the volume of the culture medium was 100 μl each well.
Removing the original culture medium from 96-well plate. Then add 100 μl of commercially drug at a concentration of 10 μM per well. After 72 hours, add the diluted WST-1 reagent to the well with 100 μl/well, and the diluted WST-1 reagent was acquired from the dilution of 9:1 medium and WST-1 stock reagent. Finally, the total volume of each well was 200 μl/well. […] Detecting and calculate the survival rate of each cancer cells with an ELISA reader at OD450 nm. The lower viability of cancer cells represents better inhibition effect via the Cinacalcet HCl drug. Otherwise, the higher viability of cancer cells represents worse inhibition effect via the Cinacalcet HCl drug.
This inhibition test of Cinacalcet HCl on pleural-related cancer cells were using two lung cancer cell lines A549 and H1650. The inhibitory tests of Cinacalcet HCl were performed 4 times for each cell lines and then the average value of the inhibitory tests was calculated.

LNCap = assay: Cell viability analysis (WST-1), LNCap; type: cell-based; settings: Homo sapiens, 72 hours, Average of tests, read-out: survival rate (viability) of cells
Procedure: as §1
Removing the original culture medium from 96-well plate. Then add 100 μl of commercially drug at a concentration of 10 μM per well. After 72 hours, add the diluted WST-1 reagent to the well with 100 μl/well, and the diluted WST-1 reagent was acquired from the dilution of 9:1 medium and WST-1 stock reagent. Finally, the total volume of each well was 200 μl/well. Culture the 96-well plate at 37° C. for 30 to 90 minutes. Detecting and calculate the survival rate of each cancer cells with an ELISA reader at OD450 nm. The lower viability of cancer cells represents better inhibition effect via the Cinacalcet HCl drug. […]
(§2) This inhibition test of Cinacalcet HCl on endocrine-related cancer cells were using prostate cancer cell lines PC-3 and LNCap (Table 6), breast cancer cell lines MCF7 and MDA-MB-231 (Table 7), and ovarian cancer cell lines NIH-OVCAR-3 and TOV-21G (Table 8). The inhibitory tests of Cinacalcet HCl were performed 4 times for each cell lines and then the average value of the inhibitory tests was calculated.

MCF7 = assay: Cell viability analysis (WST-1), MCF7; type: cell-based; settings: Homo sapiens, read-out: survival rate (viability) of cells
Procedure: as §1
(§3) Removing the original culture medium from 96-well plate. Then add 100 μl of commercially drug at a concentration of 10 μM per well. After 72 hours, add the diluted WST-1 reagent to the well with 100 μl/well, and the diluted WST-1 reagent was acquired from the dilution of 9:1 medium and WST-1 stock reagent. Finally, the total volume of each well was 200 μl/well. Culture the 96-well plate at 37° C. for 30 to 90 minutes. Detecting and calculate the survival rate of each cancer cells with an ELISA reader at OD450 nm. The lower viability of cancer cells represents better inhibition effect via the Cinacalcet HCl drug. Otherwise, the higher viability of cancer cells represents worse inhibition effect via the Cinacalcet HCl drug.
as §2

U2OS = assay: Cell viability analysis (WST-1), U2OS; type: cell-based; settings: Homo sapiens, read-out: survival rate (viability) of cells
Procedure: as §1, §3
This inhibition test of Cinacalcet HCl on other cancer cells were using osteosarcoma cell line U2OS (Table 14), skin cancer cell lines A375 and BCC (Table 15). The inhibitory tests of Cinacalcet HCl were performed 4 times for each cell lines and then the average value of the inhibitory tests was calculated.

cervical cancer cells = assay: Summary of cell viability, cervical cancer cells; type: cell-based; settings: 72 hours, read-out: Inhibitory effect
Procedure: as §1, §3
(§4) Cinacalcet HCl is having different inhibitory effect on different tumor cell type even in the same cancer. […] (FIG. 1)

ovarian cancer cells = assay: Summary of cell viability, ovarian cancer cells; type: cell-based; settings: 72 hours, read-out: Inhibitory effect
Procedure: as §1, §3, §4

[1] = test system: gastric cancer cells (AGS); assay: Animal model test of gastric cancer, tumor size; type: in vivo, mice
Procedure: In this invention, the female mice were(BALB/cAnN.Cg-Foxnl™/CrlNarl) and purchased from National Laboratory Animal Center (Taiwan). The weight of the mice were 21±1 g. These mice were subcutaneously injected with gastric cancer cells (AGS) and then put these mice into different cages at random. The drug test experiment was divided into three groups, include “control group”, “low dose group (100 mg/kg/day)”, “high dose group (200 mg/kg/day)”. These mice were then injected test drug intraperitoneally once daily […]. The tumor sizes and body weight were measured twice a week. The tumor sizes were measured and calculated by formula: (L×W^2)/2. L represents the tumor longest length. W represents the tumor shortest diameter.

normal cells = assay: Toxicity to normal cells; type: cell-based
Procedure: as §3
This inhibition test of Cinacalcet HCl on normal cells were using normal kidney cell line HEK293 (Table 16), normal pulmonary epithelial cell lines […] BEAS-2B (Table 17). The inhibitory tests of Cinacalcet HCl were performed 4 times for each cell lines and then the average value of the inhibitory tests was calculated The results were shown in Tables 16 and Tables 17.

[2] = Low dose (100 mg/kg/day) intraperitoneally, First measurement, average
[3] = Low dose (100 mg/kg/day) intraperitoneally, First measurement, single mice A, B, C, hydrochloride, 100 mg/kg/day
[4] = Low dose (100 mg/kg/day) intraperitoneally, Fourth measurement, average
[5] = Low dose (100 mg/kg/day) intraperitoneally, Fourth measurement, single mice A, B, C, hydrochloride, 100 mg/kg/day
[6] = Low dose (100 mg/kg/day) intraperitoneally, Second measurement, average
[7] = Low dose (100 mg/kg/day) intraperitoneally, Second measurement, single mice A, B, C, hydrochloride, 100 mg/kg/day
[8] = Low dose (100 mg/kg/day) intraperitoneally, Third measurement, average
[9] = both low dose and high dose, FIG. 3
[10] = high dose (200 mg/kg/day) intraperitoneally, First measurement, average
[11] = high dose (200 mg/kg/day) intraperitoneally, First measurement, single mice A, B, C, hydrochloride, 200 mg/kg/day
[12] = high dose (200 mg/kg/day) intraperitoneally, Fourth measurement, average
[13] = high dose (200 mg/kg/day) intraperitoneally, Second measurement, average
[14] = high dose (200 mg/kg/day) intraperitoneally, Second measurement, single mice A, B, C, hydrochloride, 200 mg/kg/day
[15] = high dose (200 mg/kg/day) intraperitoneally, Third measurement, average
[16] = high dose (200 mg/kg/day) intraperitoneally, Third measurement, single mice A, B, C, hydrochloride, 200 mg/kg/day

C[C@@H](NCCCc1cccc(C(F)(F)F)c1)c1cccc2ccccc12 [Cinacalcet HCl, Cinacalcet hydrochloride]
viability at 10 µM (H1650; NCI-H1650, 10 μM, 72 hours, test 1-10 min): 86.8%
viability at 10 µM (H1650; NCI-H1650, 10 μM, 72 hours, test 2-20 min): 67.5%
viability at 10 µM (H1650; NCI-H1650, 10 μM, 72 hours, test 3-20 min): 76.8%
viability at 10 µM (H1650; NCI-H1650, 10 μM, 72 hours, test 4-20 min): 75.2%
viability at 10 µM (H1650; NCI-H1650, 72 h, 10 μM, Average of tests): 76.5%
viability at 10 µM (LNCap): 52.6%
viability at 10 µM (MCF7; MCF7, 10 μM, 72 hours, test 0612-10 min): 87.7%
viability at 10 µM (MCF7; MCF7, 10 μM, 72 hours, test 0614-10 min): 75.6%
viability at 10 µM (MCF7; MCF7, 10 μM, 72 hours, test 0616-10 min): 82.2%
viability at 10 µM (MCF7; MCF7, 10 μM, 72 hours, test 0619-10 min): 77.2%
viability at 10 µM (MCF7; MCF7, 72 h, 10 μM, average of tests): 80.7%
viability at 10 µM (U2OS; 72 h, average of tests): 77.4%
viability at 10 µM (U2OS; 72 hours, test 6-26-10 min): 82.6%
viability at 10 µM (U2OS; 72 hours, test 6-28-10 min): 86.7%
viability at 10 µM (U2OS; 72 hours, test 6-30-10 min): 64.9%
viability at 10 µM (U2OS; 72 hours, test 7-3-10 min): 75.3%
viability at 10 µM (cervical cancer cells): 111%
viability at 10 µM (ovarian cancer cells): 58.7%
tumor volume [1, 2]: 592 mm3
tumor volume growth [1, 2]: 592 mm3
tumor longest length [1, 3]: 11 mm and 13 mm and 14 mm
tumor width [1, 3]: 8 mm and 12 mm
tumor volume [1, 4]: 562.1667 mm3
tumor volume growth [1, 4]: −240.3333 mm3
tumor longest length [1, 5]: 10 mm and 14 mm and 13 mm
tumor width [1, 5]: 7 mm and 13 mm
tumor volume [1, 6]: 277.5 mm3
tumor volume growth [1, 6]: −314.5 mm3
tumor longest length [1, 7]: 8 mm and 16 mm and 9 mm
tumor width [1, 7]: 5 mm and 8 mm and 7 mm
tumor volume [1, 8]: 802.5 mm3
tumor volume growth [1, 8]: 525 mm3
inhibition effect on tumor cells ([1]; both low dose and high dose, FIG. 2): significant inhibition effect
tumor volume [1, 9]: can also reduce the tumor volume
tumor volume growth [1, 9]: effectively slow down the tumor volume growth
tumor volume [1, 10]: 81.17 mm3
tumor volume growth [1, 10]: 81.17 mm3
tumor longest length [1, 11]: 7 mm and 6 mm
tumor width [1, 11]: 5 mm and 6 mm and 4 mm
tumor volume [1, 12]: 22.33 mm3
tumor volume growth [1, 12]: −56.8333 mm3
tumor volume [1, 13]: 131.1667 mm3
tumor volume growth [1, 13]: 50 mm3
tumor longest length [1, 14]: 7 mm and 6 mm
tumor width [1, 14]: 7 mm and 5 mm
tumor volume [1, 15]: 79.17 mm3
tumor volume growth [1, 15]: −52 mm3
tumor width ([1]; high dose (200 mg/kg/day) intraperitoneally, Third measurement, single mice A, B, C): 5 mm
tumor longest length [1, 16]: 7 mm and 6 mm
tumor volume [1, 16]: 87.5 mm3 and 75 mm3
inhibition of tumor growth, high doses compared with low dose ([1]; high doses, FIG. 3): better effect to inhibit tumor growth
toxicity to normal cells (normal cells): no toxicity or had little toxicity
